Data reported in US9834542B2, “LXR modulators” (BRISTOL-MYERS SQUIBB COMPANY, priority 2013, dated 2017).

Biological target: T1, LXRβ (Homo sapiens, UniProt P55055)
T1 construct: Co-transfection expression plasmids, comprising full-length LXRα (pCMX-h LXRα[…] or LXRβ (pCMX-hLXRβ)); expressed in transfected cells; host or cells: CV-1 African Green Monkey Kidney Cells
T1 sequence (P55055 1-460): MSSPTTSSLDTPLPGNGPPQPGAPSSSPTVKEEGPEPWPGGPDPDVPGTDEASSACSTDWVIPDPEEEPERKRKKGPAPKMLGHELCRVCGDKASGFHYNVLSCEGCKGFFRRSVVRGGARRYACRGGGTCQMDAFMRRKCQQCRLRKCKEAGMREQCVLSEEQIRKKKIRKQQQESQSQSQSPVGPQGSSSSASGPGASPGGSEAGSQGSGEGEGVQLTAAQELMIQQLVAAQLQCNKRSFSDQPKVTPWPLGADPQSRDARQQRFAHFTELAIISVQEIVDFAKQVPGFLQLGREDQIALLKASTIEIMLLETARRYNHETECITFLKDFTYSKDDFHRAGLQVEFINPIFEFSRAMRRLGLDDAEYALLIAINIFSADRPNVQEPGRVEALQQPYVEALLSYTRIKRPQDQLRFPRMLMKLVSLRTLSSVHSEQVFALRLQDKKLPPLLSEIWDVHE
T1 sequence (P19793 1-462 partner): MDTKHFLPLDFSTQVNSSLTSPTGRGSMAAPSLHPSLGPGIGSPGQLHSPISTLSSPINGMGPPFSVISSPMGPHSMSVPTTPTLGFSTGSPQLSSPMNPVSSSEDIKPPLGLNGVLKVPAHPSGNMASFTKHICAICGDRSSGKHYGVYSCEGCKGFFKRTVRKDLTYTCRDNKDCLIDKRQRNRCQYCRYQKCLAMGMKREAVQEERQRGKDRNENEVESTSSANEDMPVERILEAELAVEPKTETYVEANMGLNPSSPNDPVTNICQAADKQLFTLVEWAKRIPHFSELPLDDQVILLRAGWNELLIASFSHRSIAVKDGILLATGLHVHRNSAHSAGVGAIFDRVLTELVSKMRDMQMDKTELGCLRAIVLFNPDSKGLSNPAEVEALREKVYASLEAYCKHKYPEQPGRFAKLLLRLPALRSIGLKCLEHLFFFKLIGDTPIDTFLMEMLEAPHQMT
Assay: Co-transfection assay (LXRE luciferase reporter), LXRβ
Format: cell-based
Design: % Efficacy: concentration or dose not given beside the values
Conditions: for EC50: CV-1 cells transfected with pCMX-hLXRβ and LXREx1-Tk-Luciferase, 20 hours incubation; for Emax: read-out: % Efficacy
How it was run: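 Cell-based LXRβ agonism measured as LXRE-luciferase induction in transiently transfected CV-1 cells after 20 h treatment. Potency is the curve-fit EC50; efficacy is expressed as percent of a full-agonist control's maximal response.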

[1] = LXRβ co-transfection, relative to high control 1-(2,4-difluorobenzyl)-2-oxo-6-(4-phenoxyphenyl)-4-(trifluoromethyl)-1,2-dihydropyridine-3-carbonitrile

Structure (SMILES)	EC50	Emax [1]	% Efficacy [1]
Cc1nc(C(F)(F)F)cn1-c1ccc(-c2cccc(S(C)(=O)=O)c2)cc1-n1nncc1-c1ccc2c(c1)OCO2 [Example 29, 5-(1,3-benzodioxol-5-yl)-1-{3′-(methylsulfonyl)-4-[2-methyl-4-(trifluoromethyl)-1H-imidazol-1-yl]biphenyl-3-yl}-1H-1,2,3-triazole]	605 nM	65%	
Cc1nc(-c2cc(-c3cccc(C(=O)N(C)C)c3)ccc2-n2cc(C(F)(F)F)nc2C)c(-c2ccc(OC(F)F)c(F)c2)o1 [Example 442, 3′-(5-(4-(difluoromethoxy)-3-fluorophenyl)-2-methyloxazol-4-yl)-N,N-dimethyl-4′-(2-methyl-4-(trifluoromethyl)-1H-imidazol-1-yl)biphenyl-3-carboxamide]	729 nM	58%	
Cc1nc(C(F)F)cn1-c1ccc(-c2cccc(S(C)(=O)=O)c2)cc1-n1nncc1-c1ccc(OC(F)(F)F)cc1 [Example 6]	848 nM	93%	
Cc1nc(C(F)(F)F)cn1-c1ccc(-c2cc(F)c(CO)c(S(C)(=O)=O)c2)cc1-n1nncc1C(=O)c1ccc(C(F)(F)F)cc1 [Example 141, (1-{3′-fluoro-4′-(hydroxymethyl)-5′-(methylsulfonyl)-4-[2-methyl-4-(trifluoromethyl)-1H-imidazol-1-yl]biphenyl-3-yl}-1H-1,2,3-triazol-5-yl)[4-(trifluoromethyl)phenyl]meth-anone]	619 nM	106%	
COc1cnc(-c2oc(C)nc2-c2cc(-c3cc(F)c(CO)c(S(C)(=O)=O)c3)ccc2-n2cc(C(F)(F)F)nc2C)cn1 [Example 413, (3-fluoro-3′-(5-(5-methoxypyrazin-2-yl)-2-methyloxazol-4-yl)-4′-(2-methyl-4-(trifluoromethyl)-1H-imidazol-1-yl)-5-(methylsulfonyl)biphenyl-4-yl)methanol]	426 nM	63%	
COc1ncc(-c2oc(C)nc2-c2cc(-c3cc(F)c(CO)c(S(C)(=O)=O)c3)ccc2-n2cc(C(F)(F)F)nc2C)cn1 [Example 415, (3-fluoro-3′-(5-(2-methoxypyrimidin-5-yl)-2-methyloxazol-4-yl)-4′-(2-methyl-4-(trifluoromethyl)-1H-imidazol-1-yl)-5-(methylsulfonyl)biphenyl-4-yl)methanol]	1500 nM	86%	
Cc1nc(C(F)(F)F)cn1-c1ccc(-c2cccc(S(C)(=O)=O)c2)cc1-n1nncc1Cc1ccc(Cl)cc1 [Example 125, 5-[(4-chlorophenyl)methyl]-1-{3′-(methylsulfonyl)-4-[2-methyl-4-(trifluoromethyl)-1H-imidazol-1-yl]biphenyl-3-yl}-1H-1,2,3-triazole]	355 nM	83%	
Cc1nc(C(F)(F)F)cn1-c1ccc(-c2cc(F)c(CO)c(S(C)(=O)=O)c2)cc1-n1nncc1Cc1ccc(Cl)cc1 [Example 113]	524 nM	72%	
Cc1nc(-c2cc(-c3cccc(S(C)(=O)=O)c3)ccc2-n2cc(C(F)(F)F)nc2C)c(-c2cccnc2C2CC2)o1 [Example 390, 5-(2-cyclopropylpyridin-3-yl)-2-methyl-4-(4-(2-methyl-4-(trifluoromethyl)-1H-imidazol-1-yl)-3′-(methylsulfonyl)biphenyl-3-yl)oxazole]	2080 nM	62%	

Molecules with a lower EC50, results first:

EC50	Emax [1]	% Efficacy [1]	Structure (SMILES)
31 nM	96%		Cc1nc(-c2ccc3c(c2)OC(F)(F)O3)c(-c2cc(-c3cccc(S(C)(=O)=O)c3)ccc2-n2cc(C(F)(F)F)nc2C)o1 [Example 615, 4-(2,2-difluorobenzo[d][1,3]dioxol-5-yl)-2-methyl-5-(4-(2-methyl-4-(trifluoromethyl)-1H-imidazol-1-yl)-3′-(methylsulfonyl)-[1,1′-biphenyl]-3-yl)oxazol]
281 nM	48%		Cc1nc(C(F)(F)F)cn1-c1ccc(-c2cc(F)c(CO)c(S(C)(=O)=O)c2)cc1-n1nncc1C1(c2ccc(Cl)cc2)CC1 [Example 106, (3′-{5-[1-(4-chlorophenyl)cyclopropyl]-1H-1,2,3-triazol-1-yl}-3-fluoro-5-(methylsulfonyl)-4′-[2-methyl-4-(trifluoromethyl)-1H-imidazol-1-yl]biphenyl-4-yl)methanol]
43 nM	56%		Cc1nc(-c2cc(-c3cccc(S(=O)(=O)C(F)F)c3)ccc2-n2cc(C(F)(F)F)nc2C)c(-c2ccc3c(c2)OC(F)(F)O3)o1 [Example 417, 5-(2,2-difluorobenzo[d][1,3]dioxol-5-yl)-4-(3′-(difluoromethylsulfonyl)-4-(2-methyl-4-(trifluoromethyl)-1H-imidazol-1-yl)biphenyl-3-yl)-2-methyloxazole]
227 nM	70%		Cc1ccc(C(C)c2cnnn2-c2cc(-c3cccc(S(=O)(=O)N(C)C)c3)ccc2-n2cc(C(F)(F)F)nc2C)cc1 (stereo not shown) [Example 105, N,N-dimethyl-3′-{5-[1-(4-methylphenyl)ethyl]-1H-1,2,3-triazol-1-yl}-4′-[2-methyl-4-(trifluoromethyl)-1H-imidazol-1-yl]biphenyl-3-sulfonamide]
74 nM	83%		Cc1nc(-c2cc(-c3cccc(S(=O)(=O)C4CC4)c3)ccc2-n2cc(C(F)(F)F)nc2C)c(-c2ccc(OC(F)F)c(F)c2)o1 [Example 429, 4-(3′-(cyclopropylsulfonyl)-4-(2-methyl-4-(trifluoromethyl)-1H-imidazol-1-yl)biphenyl-3-yl)-5-(4-(difluoromethoxy)-3-fluorophenyl)-2-methyloxazole]
110 nM	98%		CS(=O)(=O)c1cc(-c2ccc(-n3cc(C(F)(F)F)nc3Cl)c(-n3nncc3-c3ccc(Cl)cc3)c2)cc(F)c1CO [Example 144, {3′-[5-(4-chlorophenyl)-1H-1,2,3-triazol-1-yl]-4′-[2-chloro-4-(trifluoromethyl)-1H-imidazol-1-yl]-3-fluoro-5-(methylsulfonyl)biphenyl-4-yl}methanol]
201 nM	45%		CCOc1ncc(-c2oc(C)nc2-c2cc(-c3cccc(S(C)(=O)=O)c3)ccc2-n2cc(C(F)(F)F)nc2C)cc1F [Example 471, 5-(6-ethoxy-5-fluoropyridin-3-yl)-2-methyl-4-(4-(2-methyl-4-(trifluoromethyl)-1H-imidazol-1-yl)-3′-(methylsulfonyl)biphenyl-3-yl)oxazole]
46 nM	59%		Cc1nc(-c2cc(-c3cc(F)c(CO)c(S(C)(=O)=O)c3)ccc2-n2cc(Cl)nc2C)c(-c2ccc3c(c2)OC(F)(F)O3)o1 [Example 424, (4′-(4-chloro-2-methyl-1H-imidazol-1-yl)-3′-(5-(2,2-difluorobenzo[d][1,3]dioxol-5-yl)-2-methyloxazol-4-yl)-3-fluoro-5-(methylsulfonyl)biphenyl-4-yl)methanol]
83 nM		55%	Cc1cc(-c2oc(C)nc2-c2cc(-c3cc(F)c(CO)c(S(C)(=O)=O)c3)ccc2-n2cc(C(F)(F)F)nc2C)cc(Cl)n1 [Example 452, (3′-(5-(2-chloro-6-methylpyridin-4-yl)-2-methyloxazol-4-yl)-3-fluoro-4′-(2-methyl-4-(trifluoromethyl)-1H-imidazol-1-yl)-5-(methylsulfonyl)biphenyl-4-yl)methanol]
35 nM	41%		Cc1nc(-c2cc(-c3cc(F)c(CO)c(S(C)(=O)=O)c3)ccc2-n2cc(C(F)(F)F)nc2C)c(-c2ccc(OC(F)(F)C(F)F)cc2)o1 [Example 544, (3-fluoro-4′-(2-methyl-4-(trifluoromethyl)-1H-imidazol-1-yl)-3′-(2-methyl-5-(4-(1,1,2,2-tetrafluoroethoxy)phenyl)oxazol-4-yl)-5-(methylsulfonyl)-[1,1′-biphenyl]-4-yl)methanol]
239 nM	39%		Cc1nc(-c2cc(-c3cc(F)c(CO)c(S(C)(=O)=O)c3)ccc2-n2cc(C(F)(F)F)nc2C)c(-c2cccnc2OC(F)F)o1 [Example 389, (3′-(5-(2-(difluoromethoxy)pyridin-3-yl)-2-methyloxazol-4-yl)-3-fluoro-4′-(2-methyl-4-(trifluoromethyl)-1H-imidazol-1-yl)-5-(methylsulfonyl)biphenyl-4-yl)methanol]
